Tests used:
Type in all cases: functional
Mus musculus [1] = assay: Disease modifying capacity in mouse model of transfusion-independent beta-thalassemia intermedia assessed as decrease in leukocyte counts level at 20 mg/kg, po BID for 20 days relative to control; parameters: scale not given: the % may be the effect or the level left
Mus musculus [2] = assay: Disease modifying capacity in mouse model of transfusion-independent beta-thalassemia intermedia assessed as decrease in bone marrow ROS levels level at 20 mg/kg, po BID for 20 days relative to control; parameters: scale not given: the % may be the effect or the level left
Mus musculus [3] = assay: Disease modifying capacity in mouse model of transfusion-independent beta-thalassemia intermedia assessed as increase in blood erythrocyte counts at 20 mg/kg, po BID for 20 days relative to control
Mus musculus [4] = assay: Disease modifying capacity in mouse model of transfusion-independent beta-thalassemia intermedia assessed as decrease in relative spleen weight at 20 mg/kg, po BID for 20 days relative to control; parameters: scale not given: the % may be the effect or the level left
Mus musculus [5] = assay: Disease modifying capacity in mouse model of transfusion-independent beta-thalassemia intermedia assessed as prevention of liver [58Fe] loading at 20 mg/kg, po BID for 20 days relative to control
Mus musculus [6] = assay: Disease modifying capacity in mouse model of transfusion-independent beta-thalassemia intermedia assessed as decrease in leukocyte counts level at 60 mg/kg, po BID for 20 days relative to control; parameters: scale not given: the % may be the effect or the level left
Mus musculus [7] = assay: Prevention of hyperferremia in iron overloaded beta2-microglobulin deficient female mouse assessed as reduction in serum iron level at 60 mg/kg, po measured after 3 hrs relative to control; parameters: scale not given: the % may be the effect or the level left
Rattus norvegicus [8] = assay: Prevention of iron absorption in anemic Wistar rat model of iron absorption assessed as inhibition of increase in serum iron at 10 mg/kg, po pre-dosed 1 hr before ferrous sulfate dosing and measured 3 hours after iron dosing
Mus musculus [9] = assay: Disease modifying capacity in mouse model of transfusion-independent beta-thalassemia intermedia assessed as prevention of liver [58Fe] loading at 60 mg/kg, po BID for 20 days relative to control
Rattus norvegicus [10] = assay: Prevention of iron absorption in anemic Wistar rat model of iron absorption assessed as inhibition of increase in serum iron at 3 mg/kg, po pre-dosed 1 hr before ferrous sulfate dosing and measured 3 hours after iron dosing
Mus musculus [11] = assay: Prevention of hyperferremia in iron overloaded beta2-microglobulin deficient female mouse assessed as reduction in serum iron level at 20 mg/kg, po measured after 3 hrs relative to control; parameters: scale not given: the % may be the effect or the level left
Mus musculus [12] = assay: Induction of hypoferremia in wild type C57BL/6 mouse assessed as decrease in serum iron levels at 10 mg/kg, po measured after 3 hrs post dose; parameters: scale not given: the % may be the effect or the level left
Mus musculus [13] = assay: Disease modifying capacity in mouse model of transfusion-independent beta-thalassemia intermedia assessed as decrease in blood reticulocyte counts at 20 mg/kg, po BID for 20 days relative to control; parameters: scale not given: the % may be the effect or the level left
Mus musculus [14] = assay: Decrease in serum iron in mouse model of transfusion-independent beta-thalassemia intermedia at 20 mg/kg, po BID for 20 days relative to control; parameters: scale not given: the % may be the effect or the level left
Mus musculus [15] = assay: Prevention of hyperferremia in iron overloaded beta2-microglobulin deficient male mouse assessed as reduction in serum iron level at 20 mg/kg, po measured after 3 hrs relative to control; parameters: scale not given: the % may be the effect or the level left
Mus musculus [16] = assay: Induction of hypoferremia in wild type C57BL/6 mouse assessed as decrease in serum iron levels at 100 mg/kg, po measured after 3 hrs post dose; parameters: scale not given: the % may be the effect or the level left
Mus musculus [17] = assay: Disease modifying capacity in mouse model of transfusion-independent beta-thalassemia intermedia assessed as increase in hematocrit levels at 60 mg/kg, po BID for 20 days relative to control
Mus musculus [18] = assay: Disease modifying capacity in mouse model of transfusion-independent beta-thalassemia intermedia assessed as decrease in relative spleen weight at 60 mg/kg, po BID for 20 days relative to control; parameters: scale not given: the % may be the effect or the level left
Mus musculus [19] = assay: Disease modifying capacity in mouse model of transfusion-independent beta-thalassemia intermedia assessed as decrease in RDW level at 60 mg/kg, po BID for 20 days relative to control; parameters: scale not given: the % may be the effect or the level left
Mus musculus [20] = assay: Disease modifying capacity in mouse model of transfusion-independent beta-thalassemia intermedia assessed as decrease in serum erythropoietin at 60 mg/kg, po BID for 20 days relative to control; parameters: scale not given: the % may be the effect or the level left
Mus musculus [21] = assay: Disease modifying capacity in mouse model of transfusion-independent beta-thalassemia intermedia assessed as decrease in serum erythropoietin at 20 mg/kg, po BID for 20 days relative to control; parameters: scale not given: the % may be the effect or the level left
Mus musculus [22] = assay: Decrease in serum iron in mouse model of transfusion-independent beta-thalassemia intermedia at 60 mg/kg, po BID for 20 days relative to control; parameters: scale not given: the % may be the effect or the level left
Mus musculus [23] = assay: Disease modifying capacity in mouse model of transfusion-independent beta-thalassemia intermedia assessed as decrease in [58Fe] spleen iron content at 20 mg/kg, po BID for 20 days relative to control; parameters: scale not given: the % may be the effect or the level left
Mus musculus [24] = assay: Disease modifying capacity in mouse model of transfusion-independent beta-thalassemia intermedia assessed as increase in hematocrit levels at 20 mg/kg, po BID for 20 days relative to control
Mus musculus [25] = assay: Disease modifying capacity in mouse model of transfusion-independent beta-thalassemia intermedia assessed as increase in blood erythrocyte counts at 60 mg/kg, po BID for 20 days relative to control
Mus musculus [26] = assay: Induction of hypoferremia in wild type C57BL/6 mouse assessed as decrease in serum iron levels at 30 mg/kg, po measured after 3 hrs post dose; parameters: scale not given: the % may be the effect or the level left
Mus musculus [27] = assay: Prevention of hyperferremia in iron overloaded beta2-microglobulin deficient male mouse assessed as reduction in serum iron level at 60 mg/kg, po measured after 3 hrs relative to control; parameters: scale not given: the % may be the effect or the level left
Mus musculus [28] = assay: Disease modifying capacity in mouse model of transfusion-independent beta-thalassemia intermedia assessed as decrease in RDW level at 20 mg/kg, po BID for 20 days relative to control; parameters: scale not given: the % may be the effect or the level left
Mus musculus [29] = assay: Disease modifying capacity in mouse model of transfusion-independent beta-thalassemia intermedia assessed as decrease in bone marrow ROS levels level at 60 mg/kg, po BID for 20 days relative to control; parameters: scale not given: the % may be the effect or the level left
Rattus norvegicus [30] = assay: Prevention of iron absorption in anemic Wistar rat model of iron absorption assessed as inhibition of increase in serum iron at 30 mg/kg, po pre-dosed 1 hr before ferrous sulfate dosing and measured 3 hours after iron dosing
Mus musculus [31] = assay: Disease modifying capacity in mouse model of transfusion-independent beta-thalassemia intermedia assessed as decrease in [58Fe] spleen iron content at 60 mg/kg, po BID for 20 days relative to control; parameters: scale not given: the % may be the effect or the level left

Work on `O=C(NCc1ncccc1F)c1cnc(C2CN(CCc3nc4ccccc4[nH]3)C2)o1` yielded an Activity (Mus musculus [1]) of 29%, an Activity (Mus musculus [2]) of 13% and an Activity (Mus musculus [3]) of 0%. The Activity (Mus musculus [4]) was 16%, the Activity (Mus musculus [5]) was 14% and the Activity (Mus musculus [6]) was 55%. The Activity (Mus musculus [7]) was 57%, the inhibition in vivo at 10 mg/kg (Rattus norvegicus [8]) was 29% and the Activity (Mus musculus [9]) was 47%. The inhibition in vivo at 3 mg/kg (Rattus norvegicus [10]) was -3%, the Activity (Mus musculus [11]) was 27% and the Activity (Mus musculus [12]) was 9%. For the same compound, the Activity (Mus musculus [13]) was 0%, the Activity (Mus musculus [14]) was 50% and the Activity (Mus musculus [15]) was 29%. For the same compound, the Activity (Mus musculus [16]) was 50%, the Activity (Mus musculus [17]) was 15% and the Activity (Mus musculus [18]) was 47%. For the same compound, the Activity (Mus musculus [19]) was 15%, the Activity (Mus musculus [20]) was 27% and the Activity (Mus musculus [21]) was 4%. For the same compound, the Activity (Mus musculus [22]) was 69%, the Activity (Mus musculus [23]) was 13% and the Activity (Mus musculus [24]) was 0%. It also gave an Activity (Mus musculus [25]) of 33%, an Activity (Mus musculus [26]) of 26% and an Activity (Mus musculus [27]) of 66%. The Activity (Mus musculus [28]) was 0%, the Activity (Mus musculus [29]) was 65% and the inhibition in vivo at 30 mg/kg (Rattus norvegicus [30]) was 57%. The Activity (Mus musculus [31]) was 40%.
